Assay results from PubChem BioAssay (NCI).
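These data come from cells grown in 96-well plates and exposed to compound for 48 hours at five concentrations. Definition used: TGI = concentration required for complete inhibition of growth.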

Columns and labels:
Assay in all cases: DTP human tumour cell line panel, 48 h
786-0 renal = system: 786-0 renal
A549 NSCLC = system: A549 NSCLC
ACHN renal = system: ACHN renal
CAKI-1 renal = system: CAKI-1 renal
CCRF-CEM leukemia = system: CCRF-CEM leukemia
COLO 205 colon = system: COLO 205 colon
DLD-1 colon = system: DLD-1 colon
DMS 273 small cell lung = system: DMS 273 small cell lung
EKVX NSCLC = system: EKVX NSCLC
HCT-116 colon = system: HCT-116 colon
HCT-15 colon = system: HCT-15 colon
HL-60(TB) leukemia = system: HL-60(TB) leukemia
HOP-18 NSCLC = system: HOP-18 NSCLC
HOP-62 NSCLC = system: HOP-62 NSCLC
HOP-92 NSCLC = system: HOP-92 NSCLC
HT29 colon = system: HT29 colon
IGROV1 ovarian = system: IGROV1 ovarian
K-562 leukemia = system: K-562 leukemia
KM12 colon = system: KM12 colon
KM20L2 colon = system: KM20L2 colon
LOX IMVI melanoma = system: LOX IMVI melanoma
LXFL 529 NSCLC = system: LXFL 529 NSCLC
M14 melanoma = system: M14 melanoma
M19-MEL melanoma = system: M19-MEL melanoma
MALME-3M melanoma = system: MALME-3M melanoma
NCI-H226 lung = system: NCI-H226 lung
NCI-H23 lung = system: NCI-H23 lung
NCI-H460 lung = system: NCI-H460 lung
NCI-H522 lung = system: NCI-H522 lung
OVCAR-3 ovarian = system: OVCAR-3 ovarian
OVCAR-4 ovarian = system: OVCAR-4 ovarian
OVCAR-5 ovarian = system: OVCAR-5 ovarian
OVCAR-8 ovarian = system: OVCAR-8 ovarian
RPMI-8226 leukemia = system: RPMI-8226 leukemia
RXF 393 renal = system: RXF 393 renal
RXF-631 renal = system: RXF-631 renal
SF-268 CNS = system: SF-268 CNS
SF-295 CNS = system: SF-295 CNS
SF-539 CNS = system: SF-539 CNS
SK-MEL-2 melanoma = system: SK-MEL-2 melanoma
SK-MEL-28 melanoma = system: SK-MEL-28 melanoma
SK-MEL-5 melanoma = system: SK-MEL-5 melanoma
SK-OV-3 ovarian = system: SK-OV-3 ovarian
SN12C renal = system: SN12C renal
SNB-19 CNS = system: SNB-19 CNS
SNB-75 CNS = system: SNB-75 CNS
SNB-78 CNS = system: SNB-78 CNS
SR leukemia = system: SR leukemia
SW-620 colon = system: SW-620 colon
TK-10 renal = system: TK-10 renal
U251 CNS = system: U251 CNS
UACC-257 melanoma = system: UACC-257 melanoma
UACC-62 melanoma = system: UACC-62 melanoma
UO-31 renal = system: UO-31 renal
XF 498 CNS = system: XF 498 CNS
A498 renal = system: A498 renal
DMS 114 small cell lung = system: DMS 114 small cell lung
HCC-2998 colon = system: HCC-2998 colon
MOLT-4 leukemia = system: MOLT-4 leukemia

Measured: TGI

COC1(OC)CC2CCCCC2=C(C)N1S(=O)(=O)c1ccccc1 (centres undefined)
not listed: A498 renal | DMS 114 small cell lung | HCC-2998 colon | MOLT-4 leukemia
> 100 µM: all other assays above

COc1ccc(NC(=O)NS(=O)(=O)c2ccc(C)cc2)nn1
not listed: HCT-116 colon | RXF 393 renal | SR leukemia
> 100 µM: all other assays above

C=CCN(N=O)C(=O)NCCCC(NC(C)=O)C(=O)NCc1ccccc1 (centres undefined)
not listed: DLD-1 colon | HCT-116 colon | SNB-78 CNS | SR leukemia | HCC-2998 colon
> 100 µM: all other assays above

C[C@]12CCC(=O)C[C@H]1CCC(O)[C@@H]2Br (some centres undefined)
not listed: EKVX NSCLC | RXF 393 renal | SNB-78 CNS
> 100 µM: all other assays above

N#CC1C(=O)C(=O)N(c2ccccc2)C1=O (centres undefined)
not listed: A549 NSCLC | CCRF-CEM leukemia | DLD-1 colon | HL-60(TB) leukemia | SR leukemia | MOLT-4 leukemia
> 100 µM: all other assays above
